Values joined by “and” are separate entries in the source; they are usually repeats but may differ in a detail not shown here. Equal values may be shown once. Where a name gives a salt, the structure may show the parent alone.
Legend:
[1] = test system: intraocular pressure; test: Efficacy Test 3: intraocular pressure in normal rabbits (Alcon pneumatic tonometer); type: in vivo, rabbit (male New Zealand Albino); settings: for Intraocular pressure 30 minutes after instillation, average / Intraocular pressure 1 hour after instillation, average / Intraocular pressure 30 minutes after instillation / Intraocular pressure 1 hour after instillation: 1% (W/V), 100 μl
Procedure: Male rabbits of New Zealand Albino strain, weighing 1.8 to 2.5 kg, are used as experimental animals. Intraocular pressure is measured with an Alcon pneumatic tonometer without local anesthesia, while holding the animal in a cylindrical rabbit holder.
The test compound is dissolved in a physiological solution of NaCl to a concentration of 1% (W/V), and the resulting solution is adjusted to a pH of 6.5 to 7.0 with a 0.01 N aqueous NaOH solution. The solution is instilled to one of the eyes of the animal in an accurate amount of 100 μl with a microsyringe after measuring the intraocular pressure of the eye. The eyelid is held closed for 1 minute after the instillation to prevent the escape of the solution.
The efficacy of the test compound is determined by measuring the intraocular pressure 30 minutes and 1 hour after the instillation and comparing the measurements with the pressure measured before the instillation. A 100 μl quantity of physiological saline containing no test compound is similarly tested on a control group.

[2] = test system: mice; test: Acute Toxicity Test, intravenous, mice; type: in vivo
Procedure: (§1) Active compounds useful for the glaucoma treating compositions of this invention are intravenously administered to mice to test the compounds for acute toxicity.
(§2) Other active compounds of this invention are also tested for acute toxicity in the same manner as above, i.e., by intravenously administering them to mice. The LD50 values determined are all not lower than about 40 mg/kg.

[3] = Acute Toxicity Test, intravenous, mice; type: in vivo; settings: mouse, in vivo
Procedure: as §1, §2

[4] = Acute toxicity, oral administration, male rats; settings: rat, in vivo
Source text: *Determined by the oral administration of Compound C to male rats.

| SMILES | Intraocular pressure 30 minutes after instillation, average ([1]; average of animals) | Intraocular pressure 1 hour after instillation, average ([1]; average of animals) | other results |
| --- | --- | --- | --- |
| CC(C)(C)NCC(O)COc1cccc2c1CCC(=O)N2 (centres unmarked) [Compound A, 5-(2-Hydroxy-3-tert-butylamino)propoxy-3,4-dihydrocarbostyril hydrochloride] | 17.2 mm Hg | 17.4 mm Hg | LD50 [2]: 54.4 mg/kg |
| CC(C)(C)NCC(O)COc1cccc2[nH]c(=O)ccc12 (centres unmarked) [Compound B, 5-(2-Hydroxy-3-tert-butylamino)propoxycarbostyril hydrochloride] | 17.0 mm Hg | 16.5 mm Hg | LD50 [3]: 44.6 mg/kg |
| COc1ccc(CCNCC(O)COc2ccc(OCC(C)=O)c3c2CCC(=O)N3)cc1OC (stereo not drawn) [Compound C, 8-Methylcarbonylmethoxy-5-[2-hydroxy-3-(β-3,4-dimethoxyphenethylamino)]propoxy-3,4-dihydrocarbostyril oxalate] | 17.0 mm Hg | 17.0 mm Hg | LD50 [4]: 1260 mg/kg |
| COc1ccc(CCNCC(O)COc2ccc(O)c3c2CCC(=O)N3)cc1OC (stereo not drawn) [Compound D, 8-Hydroxy-5-[2-hydroxy-3-(β-3,4-dimethoxyphenethylamino)]propoxy-3,4-dihydrocarbostyril hydrochloride] | 17.0 mm Hg | 14.0 mm Hg | Intraocular pressure 30 minutes after instillation ([1]; individual animal): 17 mm Hg |
| CCNCC(O)COc1cccc2c1CCC(=O)N2 (centres unmarked) [Compound E, 5-(2-Hydroxy-3-ethylamino)propoxy-3,4-dihydrocarbostyril maleate] | 18.0 mm Hg | 17.0 mm Hg | – |
| O=C1CCc2c(cccc2OCC(O)CNCc2ccccc2)N1 (centres unmarked) [Compound F, 5-(2-Hydroxy-3-benzylamino)propoxy-3,4-dihydrocarbostyril hydrochloride] | 18.5 mm Hg | 18.5 mm Hg | – |
| O=C1CCc2c(cccc2OCC(O)CNC2CCCCC2)N1 (centres unmarked) [Compound G, 5-(2-Hydroxy-3-cyclohexylamino)propoxy-3,4-dihydrocarbostyril hydrochloride] | 16.5 mm Hg | 16.5 mm Hg | – |
| CCN1C(=O)CCc2c(OCC(O)CNC3CCCCC3)cccc21 (centres unmarked) [Compound H, 1-Ethyl-5-(2-hydroxy-3-cyclohexylamino)propoxy-3,4-dihydrocarbostyril hydrochloride] | 15.5 mm Hg | 15.5 mm Hg | – |
| CC(C)NCC(O)COc1cccc2c1NC(=O)CC2 (centres unmarked) [Compound I, 8-(2-Hydroxy-3-isopropylamino)propoxy-3,4-dihydrocarbostyril hydrochloride] | 16.5 mm Hg | 16.5 mm Hg | LD50 [3]: 81.6 mg/kg |
| COc1ccc(CCNCC(O)COc2ccc(NC(N)=O)c3c2CCC(=O)N3)cc1OC (stereo not drawn) [Compound J, 8-Ureido-5-[2-hydroxy-3-(β-3,4-dimethoxyphenethylamino)]propoxy-3,4-dihydrocarbostyril hydrochloride] | 17.5 mm Hg | 17.0 mm Hg | LD50 [3]: 143 mg/kg |
| C#CCOc1ccc(OCC(O)CNCCc2ccc(OC)c(OC)c2)c2c1NC(=O)CC2.O=C(O)C(=O)O (stereo not drawn) [Compound K, 8-Propynyloxy-5-[2-hydroxy-3-(β-3,4-dimethoxyphenethylamino)]propoxy-3,4-dihydrocarbostyril oxalate] | 18.5 mm Hg | 18.0 mm Hg | Intraocular pressure before instillation, average ([1]; average of animals, baseline): 19.5 mm Hg; Intraocular pressure 30 minutes after instillation ([1]; individual animal): 19 mm Hg and 18 mm Hg; Intraocular pressure 1 hour after instillation ([1]; individual animal): 18 mm Hg; Intraocular pressure before instillation ([1]; individual animal, baseline): 20 mm Hg and 19 mm Hg |
| COc1ccc(CCNCC(O)COc2ccc(NC(C)=O)c3c2CCC(=O)N3)cc1OC (stereo not drawn) [Compound L, 8-Acetylamino-5-[2-hydroxy-3-(β-3,4-dimethoxyphenethylamino)]propoxy-3,4-dihydrocarbostyril hydrochloride] | 18.0 mm Hg | 17.5 mm Hg | Intraocular pressure 30 minutes after instillation ([1]; individual animal): 18 mm Hg |
| C=CCOc1ccc(OCC(O)CNC(C)(C)C)c2c1NC(=O)CC2 (centres unmarked) [Compound M, 8-Allyloxy-5-(2-hydroxy-3-tert-butylamino)propoxy-3,4-dihydrocarbostyril hydrochloride] | 19.0 mm Hg | 18.0 mm Hg | Intraocular pressure 30 minutes after instillation ([1]; individual animal): 19 mm Hg; Intraocular pressure 1 hour after instillation ([1]; individual animal): 18 mm Hg |
| C=CCN1C(=O)CCc2c(OCC(O)CNC(C)(C)C)cccc21 (centres unmarked) [Compound N, 1-Allyl-5-(2-hydroxy-3-tert-butylamino)propoxy-3,4-dihydrocarbostyril hydrochloride] | 17.5 mm Hg | 16.5 mm Hg | – |

Reference: US4309432A, “Compositions for treating glaucoma containing a carbostyril” (priority 1979, dated 1982)
